Square brackets hold non-standard residues; d marks the D form. Peptide text beside a SMILES is read from it. * marks the point of attachment. dPhe(4-NHCONH2) = NC(=O)Nc1ccc(C[C@@H](N)C(=O)O)cc1; Dihydroorotyl(S) = O=C1C[C@@H](C(=O)*)NC(=O)N1; dPhe(4-Cl) = N[C@H](Cc1ccc(Cl)cc1)C(=O)O; Phe(4-NH2) = Nc1ccc(C[C@H](N)C(=O)O)cc1; d2Nal = N[C@H](Cc1ccc2ccccc2c1)C(=O)O; Lys(iPr) = CC(C)NCCCC[C@H](N)C(=O)O; d3Pal = N[C@H](Cc1cccnc1)C(=O)O
Assays:
[1] = In-vitro release profile (IVD assay) of degarelix vials reconstituted with WFI+Tween 20; type: physicochemical; conditions: 40 mg/ml degarelix; Tween 20 at 1, 0.5, 0.25 mg/ml; control WFI
Method: Tween 20 concentrations tested:
1 mg/ml; 0.5 mg/ml; 0.25 mg/ml;

[2] = Reconstitution of degarelix vials with WFI/surfactant solution: OD (absorbance) at 350 nm; type: physicochemical; conditions: vials reconstituted to 60 mg/ml degarelix, surfactant 1 mg/ml (0.1%) in WFI, 30 min, 60 min, 120 min, 24 hours
Method: Procedure: • Degarelix batch reconstituted using WFI (as control) and using WFI containing the surfactants. The vials are reconstituted to 60 mg/ml degarelix.

[3] = in vivo
[4] = De-aggregation experiments with acetic acid: final optical density; type: physicochemical
Method: (§1) During the de-aggregation studies the temperature was set to 5, 20, 25, or 35° C. The concentration of degarelix drug substance was 5, 15, 25, or 35 mg/ml. The concentration of acetic acid is 13, 15, 18, 20, 22, 26, 30, 35 or 40%. Optical Density (OD): A sample (1 ml) should be taken at the end of each experiment for measurement of the final optical density. De-aggregation Experiment Protocol, total volume 20 or 69 ml: • 1. Weigh the required amount of stock solution into a beaker. Equilibrate to the desired temperature • 2. Weigh the required amount of acetic acid (100%) into a beaker • 3. Mix the acetic acid (100%) with 3 or 10 ml of milli-Q water and equilibrate to the desired temperature • 4. Mix the degarelix stock solution with the acetic acid/milli-Q water solution • 5. Fill milli-Q water up to 20 or 69 ml • 6. Mix thoroughly • 7. Take samples for viscosity and optical density as described above. Note the appearance of the solution during the experiment

[5] = biological target: GnRH receptors in the pituitary (Homo sapiens, UniProt P30968); conditions: prostate cancer patients; literature; cited from earlier work
GnRH receptors in the pituitary, sequence (P30968 whole entry): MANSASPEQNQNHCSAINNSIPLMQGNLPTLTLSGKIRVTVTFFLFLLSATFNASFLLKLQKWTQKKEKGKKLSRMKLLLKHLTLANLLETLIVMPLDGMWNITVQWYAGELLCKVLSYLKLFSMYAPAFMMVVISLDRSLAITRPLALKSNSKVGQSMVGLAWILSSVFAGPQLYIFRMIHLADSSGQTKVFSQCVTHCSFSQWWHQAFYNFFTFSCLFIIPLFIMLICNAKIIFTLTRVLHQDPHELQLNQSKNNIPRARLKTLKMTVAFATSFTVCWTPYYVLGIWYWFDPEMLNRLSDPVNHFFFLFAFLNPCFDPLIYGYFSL

[6] = De-aggregation experiments with acetic acid: viscosity of degarelix stock solution; type: physicochemical
Method: as §1, with “Determination of the viscosity of the drug substance and drug product solution is based on the current edition of Ph. Eur. and USP procedure using a rotating viscometer equipped with a cone-plate measuring system with D=60 mm and 1°. The shear rate is increased from 0 to 500 s in 20 steps, using a controlled rate (CR) rotation step program at a constant temperature of 20±0.2° C., making certain that the system reaches equilibrium before the viscosity is recorded at a shear rate of 500 s^−1. During” for “During”, “Viscosity: Take out 1.2 ml” for “Optical Density (OD): A sample (1 ml) should be taken”, “T=1, 60, 120, and 240 min.” for “the end of each experiment for measurement of the final optical density.”

[7] = 5 °C, degarelix 5 mg/ml, AcOH 40%
[8] = 5 °C, degarelix 25 mg/ml, AcOH 13%
[9] = 5 °C, degarelix 25 mg/ml, AcOH 15%
[10] = 5 °C, degarelix 25 mg/ml, AcOH 20%
[11] = 5 °C, degarelix 35 mg/ml, AcOH 26%
[12] = 20 °C, degarelix 15 mg/ml, AcOH 30%
[13] = 25 °C, degarelix 25 mg/ml, AcOH 20%
[14] = 35 °C, degarelix 25 mg/ml, AcOH 15%
[15] = 35 °C, degarelix 25 mg/ml, AcOH 18%
[16] = 35 °C, degarelix 25 mg/ml, AcOH 20%
[17] = 35 °C, degarelix 35 mg/ml, AcOH 22%
[18] = 35 °C, degarelix 35 mg/ml, AcOH 26%
[19] = 35 °C, degarelix 35 mg/ml, AcOH 30%
[20] = 35 °C, degarelix 35 mg/ml, AcOH 35%

Polysorbate 20 [Tween 20]
in-vitro release profiles [1]: not altered
optical density versus control [2]: reduced the optical density to a level below the control

CC(=O)N[C@H](Cc1ccc2ccccc2c1)C(=O)N[C@H](Cc1ccc(Cl)cc1)C(=O)N[C@H](Cc1cccnc1)C(=O)N[C@@H](CO)C(=O)N[C@@H](Cc1ccc(NC(=O)[C@@H]2CC(=O)NC(=O)N2)cc1)C(=O)N[C@H](Cc1ccc(NC(N)=O)cc1)C(=O)N[C@@H](CC(C)C)C(=O)N[C@@H](CCCCNC(C)C)C(=O)N1CCC[C@H]1C(=O)N[C@H](C)C(N)=O [Degarelix, D-Alaninamide, N-acetyl-3-(2-naphthalenyl)-D-alanyl-4-chloro-D-phenylaanyl-3-(3-pyridinyl)-D-alanyl-L-seryl-4-[[[(4S)-hexahydro-2,6-dioxo-4-pyrimidinyl]carbonyl]amino]-L-phenylalanyl-4-[(aminocarbonyl)amino]-D-phenylaanyl-L-leucyl-N6-(1-methylethyl)-L-lysyl-L-prolyl-] (Ac-[d2Nal][dPhe(4-Cl)][d3Pal]S[Phe(4-NH2)](Dihydroorotyl(S))[dPhe(4-NHCONH2)]L[Lys(iPr)]P[dA]-NH2)
sustained release from the depot [3]: sustained release of the active over months
Optical Density Time = 240 min [4, 7]: 0.00
Optical Density Time = 240 min [4, 8]: 0.10
Optical Density Time = 240 min [4, 9]: 0.09
Optical Density Time = 240 min [4, 10]: 0.06
Optical Density Time = 240 min [4, 11]: 0.08
Optical Density Time = 240 min [4, 12]: 0.03
Optical Density Time = 240 min [4, 13]: 0.10
Optical Density Time = 240 min [4, 14]: 0.86
Optical Density Time = 240 min [4, 15]: 0.07
Optical Density Time = 240 min [4, 16]: 0.05
Optical Density Time = 240 min [4, 17]: 0.13
Optical Density Time = 240 min [4, 18]: 0.10
Optical Density Time = 240 min [4, 19]: 0.07
Optical Density Time = 240 min [4, 20]: 0.08
testosterone surge or clinical flare [5]: does not cause testosterone surge or clinical flare
Viscosity @ 500 Time = 240 min [6, 7]: 1.9 mPas * s
Viscosity @ 500 Time = 240 min [6, 8]: 2.3 mPas * s
Viscosity @ 500 Time = 240 min [6, 9]: 1.9 mPas * s
Viscosity @ 500 Time = 240 min [6, 10]: 1.7 mPas * s
Viscosity @ 500 Time = 240 min [6, 11]: 1.9 mPas * s
Viscosity @ 500 Time = 240 min [6, 12]: 1.8 mPas * s
Viscosity @ 500 Time = 240 min [6, 13]: 2.0 mPas * s
Viscosity @ 500 Time = 240 min [6, 14]: 7.2 mPas * s
Viscosity @ 500 Time = 240 min [6, 15]: 2.1 mPas * s
Viscosity @ 500 Time = 240 min [6, 16]: 1.7 mPas * s
Viscosity @ 500 Time = 240 min [6, 17]: 2.1 mPas * s
Viscosity @ 500 Time = 240 min [6, 18]: 1.9 mPas * s
Viscosity @ 500 Time = 240 min [6, 19]: 2.0 mPas * s
Viscosity @ 500 Time = 240 min [6, 20]: 2.1 mPas * s
